Laboratory results taken from patent US20150125863A1, “CXCL5 AS A MARKER OF HORMONE ESCAPE IN PROSTATE CANCER” (Institut National de la Sante Recherche Medicale (INSERM), priority 2010, published 2015).

Columns and labels:
[1] = system: CXCL5 RNA levels in CWR-R1 cells; experiment: CXCL5 RNA levels by real-time PCR in CWR-R1 cells; assay type: cell-based; details: CDFCS + 10^-8 M Dihydrotestosterone vs CDFCS (FIG. 5A)
Source text: (§1) Results represent the mean±SD of 3 independent experiments.
as §1

[2] = system: CXCL5 RNA levels in LNCaP cells; details: CDFCS + 10^-8 M Dihydrotestosterone vs CDFCS (FIG. 5B)
Method: CXCL5 RNA levels were measured by real-time PCR. CXCL5 levels in the presence of FCS were set to 1. Results represent the mean±SD of 3 independent experiments.
CWR-R1 and LNCaP cells were maintained in RPMI 1640 with Glutamax (Invitrogen, Carlsbad, USA), completed with 10% Foetal Calf Serum (FCS) and gentamycin. For androgen stimulations, cells were weaned off steroids before any experiment by culturing them in phenol red-free RPMI 1640 supplemented with 10% CDFCS (charcoal dextran-treated FCS) for 4 days.
Total RNA was prepared using TriReagent (Euromedex, Souffelweyersheim, France). The amount of RNA was estimated by spectrophotometry at 260 nm. Complementary DNAs (cDNA) were obtained from reverse transcription (RT) of 3 μg of total RNA in 13 μl of water RNase free. 1 μl of random hexanucleotides as primers (pd(N)6, 50 mM) in the presence of 1 μl of dNTPs (250 mM; Gibco BRL) were added to the RNA and incubated 5 minutes at 70° C. After, 5 μl of mix containing reverse transcriptase (1 μl) and reverse transcriptase buffer 5× (4 μl) were added to the RNA solution and incubated 1 h at 42° C. Real-time PCR quantification was then performed using a SYBR Green approach (Light Cycler; Roche) as previously described (Lucas et al. 2003 Biochem Biophys Res Commun 309:1011-1016). For each sample, CXCL5 mRNA levels were normalized with RS9 mRNA levels (reference gene).

CWR-R1 cells = experiment: In vitro proliferation of CWR-R1 cells; assay type: cell-based; details: CXCL5 1 or 50 ng/ml with 10^-5 M bicalutamide, 5 days (FIG. 6B)
Method: CWR-R1 cells were cultured in whole fetal calf serum (FCS), in the absence or in the presence of […] of bicalutamide. CXCL5 RNA levels were measured by real-time PCR. […] Results represent the mean±SD of 3 independent experiments. B. CXCL5 enhances the proliferation of CWR-R1 cells both in the absence and in the presence of the anti-androgen bicalutamide. CWR-R1 cells were cultured in FCS. Some cells were treated with 10^-5 M bicalutamide. The cells were either treated with Ethanol vehicle (C) or with CXCL5 (1 or 50 ng/ml). Proliferation was quantified 5 days after treatment by counting the cells.
2.5×10^4 cells per well were seeded in triplicate in 24-well culture plates in complete growth media previously described. Cell numbers were determined every two days for 6 days by counting with a malassez slide or by measuring of luciferase activity. For proliferation in complete fetal calf serum, cells were maintained in […] with RPMI 1640. To test the effects of androgens, cells were maintained in phenol-red free RPMI 1640 medium supplemented with 10% FCS.

[3] = system: CXCL5 expression in PC-3 cells; experiment: Blocking experiments with shCXCL5, CXCL5 levels by Elisa in PC-3 cells; assay type: cell-based; details: PC-3 cells transfected with shCXCL5 vector, compared to Non-Target shRNA Control Vector, after 4 days, Elisa (FIG. 9B)
Method: (§2) A. PC-3 cells were grown for 4 days and either non treated (Control) or treated with goat serum (diluted 1/20) as isotype control antibody (Isotype) or with 0.5 μg/ml of CXCL5 antibody (CXCL5 Ab). Medium with or without treatment was changed at day 2. Results represent the mean of luciferase activity±SD after 4 days of 3 independent experiments. B, C. PC-3 cells were transfected with Non-Target shRNA Control (shCt) or shCXCL5 vector. 4 days later, the medium was collected and CXCL5 levels were measured by Elisa (B). The number of cells was counted on day 4 (C). A representative experiment is shown here.
(§3) 10^5 PC-3 cells plated in 6 well plated in 10% FCS with RPMI 1640 were transfected with 4 μg of Non-Target shRNA Control Vector (ShC002, Mission Library, Sigma-Aldrich) or shCXCL5 vector (SHCLND-NM_002994-TRCN0000057934NM_002994.3-304s1c1TRC1, Sequence SEQ ID NO: 6: […] Mission Library, Sigma-Aldrich) using Jet-PEI® protocol in each well. 8 h after transfection medium was changed. CXCL5 secretion was quantified 48 h later in conditioned medium by ELISA (Duoset, DY254, R&D system). Cells were counted 4 days after transfection using malassez slide.

PC-3 cells = experiment: Blocking experiments with shCXCL5, PC-3 cell proliferation; assay type: cell-based; details: PC-3 cells transfected with shCXCL5 vector, cells counted on day 4 (FIG. 9C)
Method: as §2, §3

With `C[C@]12CCC(=O)C[C@@H]1CC[C@@H]1[C@@H]2CC[C@]2(C)[C@@H](O)CC[C@@H]12` [dihydrotestosterone] the “effect on levels of CXCL5 RNA” value [1] was “partially reduced” and the “effect on levels of CXCL5 RNA” value [2] was “partially reduced”.

For “recombinant CXCL5: recombinant C-X-C motif chemokine 5 added to CWR-R1 cells”, the “effect on the inhibition of proliferation by bicalutamide” value (CWR-R1 cells) was “partially alleviate”.

In the case of “shCXCL5: shRNA vector against CXCL5, SEQ ID NO: 6, Mission Library, Sigma-Aldrich (DNA CCGGGATCAGTAATCTGCAAGTGTTCTCGAGAACACTTGCAGATTACTGATCTTTTTG)”, the CXCL5 expression [3] is reported as “strongly reduced” and the “inhibition of proliferation of PC-3 cells” value (PC-3 cells) is reported as “more than 10 fold”.
